Assay results taken from PMC8379219 (Nature Communications, 2021).
Several values for one entry are separate records, joined by “and”; a condition that tells them apart may be missing. Identical values can stand only once. Like-named read-outs stand apart in the source and are kept apart here.

Legend:
SERT S438T = SERT S438T (Homo sapiens, UniProt P31645, S438T)
SERT WT [1] = target: T1, SERT WT (Homo sapiens, UniProt P31645)
SERT WT [2] = target: T1, SERT WT; assay: [3H]IMI dissociation rate assay (allosteric potency), COS-7 membranes;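 as to all read-outs here: radioligand pre-bound 30 min at room temperature to equilibrium, then dissociation followed over 5–70 min, ended by filtration through GF/B filters, at least three independent experiments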; format: binding; parameters: expressed in transfected cells; host or cells: COS-7; conditions: for VLZ Allosteric Potency SERT WT, [3H]IMI dissociation (Fig. 2C): ctrl = 1, replicates
SERT WT [3] = target: T1, SERT WT; remark: listed apart in the source

T1 sequence (P31645 whole entry): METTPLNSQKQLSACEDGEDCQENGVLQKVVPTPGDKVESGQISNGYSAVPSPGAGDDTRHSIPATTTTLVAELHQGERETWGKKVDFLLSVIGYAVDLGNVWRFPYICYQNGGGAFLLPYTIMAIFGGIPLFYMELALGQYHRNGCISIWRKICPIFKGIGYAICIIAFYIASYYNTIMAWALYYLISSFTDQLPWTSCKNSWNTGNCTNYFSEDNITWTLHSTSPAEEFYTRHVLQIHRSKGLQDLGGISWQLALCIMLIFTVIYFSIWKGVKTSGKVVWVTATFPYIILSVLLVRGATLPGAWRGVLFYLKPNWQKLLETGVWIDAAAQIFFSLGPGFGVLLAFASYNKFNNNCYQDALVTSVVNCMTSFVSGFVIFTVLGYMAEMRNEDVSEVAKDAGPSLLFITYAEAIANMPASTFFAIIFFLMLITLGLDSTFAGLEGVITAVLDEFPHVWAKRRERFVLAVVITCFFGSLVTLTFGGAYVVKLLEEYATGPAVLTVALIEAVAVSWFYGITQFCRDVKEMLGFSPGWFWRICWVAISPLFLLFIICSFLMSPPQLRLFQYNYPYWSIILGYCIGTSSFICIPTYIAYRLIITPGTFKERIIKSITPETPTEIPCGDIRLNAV
Chain of SERT S438T (P31645 whole entry S438T): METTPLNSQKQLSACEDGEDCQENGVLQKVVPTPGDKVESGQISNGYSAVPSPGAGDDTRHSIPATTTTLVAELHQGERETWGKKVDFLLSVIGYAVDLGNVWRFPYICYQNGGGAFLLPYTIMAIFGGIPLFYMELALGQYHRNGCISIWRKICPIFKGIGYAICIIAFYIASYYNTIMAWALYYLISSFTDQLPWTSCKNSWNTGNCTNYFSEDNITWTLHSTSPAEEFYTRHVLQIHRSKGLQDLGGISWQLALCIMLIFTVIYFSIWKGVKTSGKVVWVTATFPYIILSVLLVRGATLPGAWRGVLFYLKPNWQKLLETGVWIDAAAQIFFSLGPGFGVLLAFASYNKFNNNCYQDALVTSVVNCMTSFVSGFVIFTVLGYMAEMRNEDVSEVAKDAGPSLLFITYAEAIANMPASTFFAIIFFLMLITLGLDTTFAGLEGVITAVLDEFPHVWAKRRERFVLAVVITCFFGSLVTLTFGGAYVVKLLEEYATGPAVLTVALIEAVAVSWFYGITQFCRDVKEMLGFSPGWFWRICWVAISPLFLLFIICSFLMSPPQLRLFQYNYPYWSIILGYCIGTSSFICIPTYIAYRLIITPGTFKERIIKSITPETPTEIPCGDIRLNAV

[3H]5-HT uptake inhibition S1 Mutants (SERT S438T; Log[VLZ] (M) -9.5): 80.1053
[3H]5-HT uptake inhibition S1 Mutants (SERT S438T; Log[VLZ] (M) -10): 87.6994 and 103.115 and 83.4593
[3H]5-HT uptake inhibition S1 Mutants (SERT S438T; Log[VLZ] (M) -11): 102.782 and 106.151 and 94.1598
[3H]5-HT uptake inhibition S1 Mutants (SERT S438T; Log[VLZ] (M) -12): 100.15 and 89.7676 and 98.9977
[3H]S-CIT binding inhibition (SERT WT [1]; Log[VLZ] (M) -6): 6.1374 and 6.267 and 9.306 and 7.924
[3H]IMI dissociation (Fig. 2B) (SERT WT [2]; 0.5 nM, time 5 min): 98.1806
[3H]IMI dissociation (Fig. 2B) (SERT WT [2]; 0.5 nM, time 10 min): 95.2605
[3H]IMI dissociation (Fig. 2B) (SERT WT [2]; 0.5 nM, time 15 min): 95.3158
[3H]IMI dissociation (Fig. 2B) (SERT WT [2]; 0.5 nM, time 20 min): 91.8569
[3H]IMI dissociation (Fig. 2B) (SERT WT [2]; 0.5 nM, time 30 min): 86.7456
[3H]IMI dissociation (Fig. 2B) (SERT WT [2]; 0.5 nM, time 50 min): 81.092
[3H]IMI dissociation (Fig. 2B) (SERT WT [2]; 0.5 nM, time 70 min): 71.6978
[3H]IMI dissociation (Fig. 2B) (SERT WT [2]; 1.6 nM, time 5 min): 98.6368
[3H]IMI dissociation (Fig. 2B) (SERT WT [2]; 1.6 nM, time 10 min): 97.1109
[3H]IMI dissociation (Fig. 2B) (SERT WT [2]; 1.6 nM, time 15 min): 94.6142
[3H]IMI dissociation (Fig. 2B) (SERT WT [2]; 1.6 nM, time 20 min): 91.8363
[3H]IMI dissociation (Fig. 2B) (SERT WT [2]; 1.6 nM, time 30 min): 88.3693
[3H]IMI dissociation (Fig. 2B) (SERT WT [2]; 1.6 nM, time 50 min): 82.8483
[3H]IMI dissociation (Fig. 2B) (SERT WT [2]; 1.6 nM, time 70 min): 74.8875
[3H]IMI dissociation (Fig. 2B) (SERT WT [2]; 5.0 nM, time 5 min): 97.5709
[3H]IMI dissociation (Fig. 2B) (SERT WT [2]; 5.0 nM, time 10 min): 97.4425
[3H]IMI dissociation (Fig. 2B) (SERT WT [2]; 5.0 nM, time 20 min): 93.3593
[3H]IMI dissociation (Fig. 2B) (SERT WT [2]; 5.0 nM, time 30 min): 90.4506
[3H]IMI dissociation (Fig. 2B) (SERT WT [2]; 5.0 nM, time 50 min): 84.3631
[3H]IMI dissociation (Fig. 2B) (SERT WT [2]; 5.0 nM, time 70 min): 76.3943
[3H]IMI dissociation (Fig. 2B) (SERT WT [2]; 14 nM, time 5 min): 98.3663
[3H]IMI dissociation (Fig. 2B) (SERT WT [2]; 14 nM, time 10 min): 97.4617
[3H]IMI dissociation (Fig. 2B) (SERT WT [2]; 14 nM, time 15 min): 95.8874
[3H]IMI dissociation (Fig. 2B) (SERT WT [2]; 14 nM, time 20 min): 96.0081
[3H]IMI dissociation (Fig. 2B) (SERT WT [2]; 14 nM, time 30 min): 92.2894
[3H]IMI dissociation (Fig. 2B) (SERT WT [2]; 14 nM, time 50 min): 89.4282
[3H]IMI dissociation (Fig. 2B) (SERT WT [2]; 14 nM, time 70 min): 81.9514
[3H]IMI dissociation (Fig. 2B) (SERT WT [2]; 41 nM, time 5 min): 97.9849
[3H]IMI dissociation (Fig. 2B) (SERT WT [2]; 41 nM, time 10 min): 98.4954
[3H]IMI dissociation (Fig. 2B) (SERT WT [2]; 41 nM, time 15 min): 97.2116
[3H]IMI dissociation (Fig. 2B) (SERT WT [2]; 41 nM, time 20 min): 97.5521
[3H]IMI dissociation (Fig. 2B) (SERT WT [2]; 41 nM, time 30 min): 96.6684
[3H]IMI dissociation (Fig. 2B) (SERT WT [2]; 41 nM, time 50 min): 94.4925
[3H]IMI dissociation (Fig. 2B) (SERT WT [2]; 41 nM, time 70 min): 87.7012
VLZ Allosteric Potency SERT WT, [3H]IMI dissociation (Fig. 2C) (SERT WT [2]; Log[VLZ] (M) -4): 0
Hill slope for inhibition of [3H]5-HT uptake (SERT WT [3]): ~ 2
[3H]5-HT uptake inhibition (SERT WT [3]; Log[VLZ] (M) -7.5): 2.2056 and 2.462 and 3.034 and 2.528
[3H]5-HT uptake inhibition (SERT WT [3]; Log[VLZ] (M) -9.5): 92.7238
[3H]5-HT uptake inhibition (SERT WT [3]; Log[VLZ] (M) -10): 95.9437
[3H]5-HT uptake inhibition (SERT WT [3]; Log[VLZ] (M) -10.5): 103.235
[3H]5-HT uptake inhibition (SERT WT [3]; Log[VLZ] (M) -11): 103.321 and 85.9044
Compound: N#Cc1ccc2[nH]cc(CCCCN3CCN(c4ccc5oc(C(N)=O)cc5c4)CC3)c2c1 [VLZ, Vilazodone]
[3H]5-HT uptake inhibition S1 Mutants (SERT S438T; Log[VLZ] (M) -10.5): 92.1556 and 93.2014 and 102.815 and 97.2843
[3H]S-CIT binding inhibition (SERT WT [1]; Log[VLZ] (M) -7): 15.0029 and 12.5666 and 12.6935 and 13.2177 and 16.0372 and 22.3569
[3H]S-CIT binding inhibition (SERT WT [1]; Log[VLZ] (M) -8): 20.242 and 17.0122 and 17.5714 and 27.4498 and 22.8662
[3H]S-CIT binding inhibition (SERT WT [1]; Log[VLZ] (M) -9.5): 93.155 and 87.0219 and 91.9361 and 94.5429
[3H]S-CIT binding inhibition (SERT WT [1]; Log[VLZ] (M) -10): 90.7785 and 92.3382 and 88.1671 and 94.4965
[3H]S-CIT binding inhibition (SERT WT [1]; Log[VLZ] (M) -11): 106.327 and 106.337 and 110.336 and 113.218 and 118.473 and 111.36
[3H]S-CIT binding inhibition (SERT WT [1]; Log[VLZ] (M) -12): 92.524 and 93.4609 and 92.9453 and 86.9585 and 90.0353
VLZ Allosteric Potency SERT WT, [3H]IMI dissociation (Fig. 2C) (SERT WT [2]; Log[VLZ] (M) -5.9101): 0.1027 and 0.08972 and 0.1662 and 0.1172 and 0.01147
VLZ Allosteric Potency SERT WT, [3H]IMI dissociation (Fig. 2C) (SERT WT [2]; Log[VLZ] (M) -6.38561): 0.0801 and 0.09017 and 0.06116 and 0.2108 and 0.1226 and 0.07783 and 0.1748 and 0.1023
VLZ Allosteric Potency SERT WT, [3H]IMI dissociation (Fig. 2C) (SERT WT [2]; Log[VLZ] (M) -6.86273): 0.1665 and 0.2014 and 0.09755 and 0.4073 and 0.1925 and 0.0796 and 0.2088 and 0.1328
VLZ Allosteric Potency SERT WT, [3H]IMI dissociation (Fig. 2C) (SERT WT [2]; Log[VLZ] (M) -7.33985): 0.3329 and 0.2727 and 0.2322 and 0.5054 and 0.3314 and 0.3281 and 0.2598 and 0.3035 and 0.2526
VLZ Allosteric Potency SERT WT, [3H]IMI dissociation (Fig. 2C) (SERT WT [2]; Log[VLZ] (M) -7.81697): 0.6247 and 0.4843 and 0.4623 and 0.5542 and 0.4673 and 0.4013 and 0.468 and 0.4244
VLZ Allosteric Potency SERT WT, [3H]IMI dissociation (Fig. 2C) (SERT WT [2]; Log[VLZ] (M) -8.29409): 0.894 and 0.6671 and 0.6226 and 0.8075 and 0.7294 and 0.5156 and 0.7279 and 0.5418
VLZ Allosteric Potency SERT WT, [3H]IMI dissociation (Fig. 2C) (SERT WT [2]; Log[VLZ] (M) -8.77121): 0.9289 and 0.7744 and 0.7519 and 0.85 and 0.8487 and 0.773 and 0.7182 and 0.7591
